According to patent US20260347353A1, “INDOLIZINE DERIVATIVES FOR TREATING CANCER” (Antares Therapeutics, Inc., priority 2022, published 2026):

How the values were obtained:
[1] = target: T1, p53 Y220C mutant protein (amino acid residues 94-293) (Homo sapiens, UniProt P04637, Y220C); experiment: Surface Plasmon Resonance (SPR) assay, p53 Y220C Kd_kinetic; details: multi-cycle kinetics, 16 or 20 °C, pH 7.5, 1:1 binding model
T1 construct: p53 Y220C mutant protein (amino acid residues 94-293)
Procedure: SPR experiments are performed on a Biacore 8K instrument. […] Compounds are 2-fold, 7-point serial diluted; the top concentration varies depending on the potency. Compound binding affinities are measured in the multi-cycle kinetics mode, at 30 μL/min flow rate with 60 seconds association time and 120 seconds dissociation time. The running buffer contains 50 mM Tris, pH 7.5, 100 mM NaCl, 1 mM DTT, 0.01% Brij35, 0.05% Tween-20 and 1% DMSO. The assay temperature is maintained at 16 or 20 °C and data are fit into the 1:1 binding model using the Biacore Insight Evaluation software.

p53 Y220C = p53 Y220C (Homo sapiens, UniProt P04637, Y220C); experiment: Luciferase Reporter Assay, p53 Y220C (NCIH1299 cells with inducible p53 Y220C and p53 response element-luciferase); assay type: cell-based; details: 6 hour compound treatment, read-out: Luc P53 Y220C AC50
Procedure: Luciferase reporter (Luc) driven by p53 response element (LTV-p53-Luc (SKU #: LTLR007); G&P Biosciences) and inducible p53 Y220C construct (Tet-One inducible expression system; Takara) were stably expressed in NCIH1299 cells by lentiviral transduction. The cells were then used for p53 reporter assay. 5,000 cells were seeded in each well of 384 plate and cultured in 0.5 ug/mL doxycycline (D3072; Sigma) containing medium for 24 hours before compound treatment. After 6 hour of compound treatment, equal volume of One-Glo reagent (E6110; Promega) was added to each well and the plate was incubated for 5 minutes with shaking at room temperature. The luciferase activity was immediately measured with PheraStar microplate reader. Luciferase activity was stimulated by 10 uM of a tool compound as positive control and AC50 was calculated.

NUGC3 cells (p53 Y220C) = experiment: Cell Proliferation Assay (CellTiter-Glo), NUGC3 p53 Y220C; assay type: cell-based; details: Homo sapiens, NUGC-3, 120 h, 5 days, read-out: CTG NUGC3 P53 Y220C IC50
Procedure: (§1) Inducible p53 Y220C and R273H constructs (Tet-One inducible expression system; Takara) were stably expressed in NCIH1299 cells by lentiviral transduction. NUGC3, A549, BxPC3, T3M4, HuH7, HCC2935, MFE296, NCIH1299, NCIH1299-inducible p53 Y220C, and NCIH1299-inducible p53 R273H cell lines were used for cell proliferation assay. 250-500 cells were seeded in each well of 384 plate and then compounds were dispensed into each well using Echo or Tecan. After 5 days of incubation, equal volume of CellTiter-Glo reagent (G7570; Promega) was added into each well and the plate was incubated at room temperature for 10 minutes with shaking. The luminescent signal was measured by PheraStar microplate reader and IC50 was calculated.

[2] = test system: NCIH1299-inducible p53 Y220C cells; experiment: Cell Proliferation Assay (CellTiter-Glo), NCIH1299-inducible p53 Y220C; assay type: cell-based; details: Homo sapiens, NCI-H1299, 120 h, 5 days, read-out: CTG H1299 P53 Y220C IC50
Procedure: as §1

T1 sequence (P04637 94-293, stated change not applied): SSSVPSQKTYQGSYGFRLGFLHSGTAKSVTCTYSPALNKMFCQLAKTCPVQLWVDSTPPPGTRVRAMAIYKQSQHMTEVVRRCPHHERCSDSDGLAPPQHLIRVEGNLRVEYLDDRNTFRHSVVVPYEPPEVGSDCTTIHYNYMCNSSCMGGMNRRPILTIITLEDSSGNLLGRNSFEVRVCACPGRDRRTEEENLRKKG

| SMILES | Kd [1] [nM] | AC50 (p53 Y220C) [nM] | IC50 (NUGC3 cells (p53 Y220C)) [nM] | IC50 [2] [nM] |
| --- | --- | --- | --- | --- |
| C[C@@H](NC(=O)C1CC1)c1nc(-c2cc3c(N[C@@H]4CCN(C)C[C@@H]4F)cccn3c2SC(F)(F)F)no1 (relative stereo) [Example 51, N-[(1R*)-1-[3-(8-{[(3S,4R)-3-fluoro-1-methylpiperidin-4-yl]amino}-3-[(trifluoromethyl)sulfanyl]indolizin-2-yl)-1,2,4-oxadiazol-5-yl]ethyl]cyclopropanecarboxamide] | 10 to 100 | ≥ 3000 | ≥ 3000 | ≥ 3000 |
| CN1CC[C@@H](Nc2cccn3c(SC(F)(F)F)c(-c4nsc(CNC(=O)C5CC5)n4)cc23)[C@@H](F)C1 [Example 4, N-{[3-(8-{[(3S,4R)-3-fluoro-1-methylpiperidin-4-yl]amino}-3-[(trifluoromethyl)sulfanyl]indolizin-2-yl)-1,2,4-thiadiazol-5-yl]methyl}cyclopropanecarboxamide] | 10 to 100 | ≥ 3000 | ≥ 3000 | ≥ 3000 |
| CN1CC[C@@H](Nc2cccn3c(SC(F)(F)F)c(-c4noc(CNC(=O)C5CC(F)(F)C5)n4)cc23)[C@@H](F)C1 [Example 10, 3,3-difluoro-N-{[3-(8-{[(3S,4R)-3-fluoro-1-methylpiperidin-4-yl]amino}-3-[(trifluoromethyl)sulfanyl]indolizin-2-yl)-1,2,4-oxadiazol-5-yl]methyl}cyclobutane-1-carboxamide] | – | 1500 to 3000 | ≥ 3000 | ≥ 3000 |
| CN1CC[C@@H](Nc2cccn3c(SC(F)(F)F)c(-c4noc(CNC(=O)C5(NC(=O)OC(C)(C)C)CC5)n4)cc23)[C@@H](F)C1 [Example 22, tert-butyl N-[1-({[3-(8-{[(3S,4R)-3-fluoro-1-methylpiperidin-4-yl]amino}-3-[(trifluoromethyl)sulfanyl]indolizin-2-yl)-1,2,4-oxadiazol-5-yl]methyl}carbamoyl)cyclopropyl]carbamate] | – | ≥ 3000 | 1500 to 3000 | ≥ 3000 |
| CN1CC[C@@H](Nc2cccn3c(SC(F)(F)F)c(-c4noc(CNC(=O)C5(C#N)CC5)n4)cc23)[C@@H](F)C1 [Example 28, 1-cyano-N-{[3-(8-{[(3S,4R)-3-fluoro-1-methylpiperidin-4-yl]amino}-3-[(trifluoromethyl)sulfanyl]indolizin-2-yl)-1,2,4-oxadiazol-5-yl]methyl}cyclopropane-1-carboxamide] | – | < 750 | < 750 | < 750 |
| CN1CC[C@@H](Nc2cccn3c(SC(F)(F)F)c(-c4noc(CNC(=O)[C@@H]5COCCN5C)n4)cc23)[C@@H](F)C1 [Example 69, (3S)—N-{[3-(8-{[(3S,4R)-3-fluoro-1-methylpiperidin-4-yl]amino}-3-[(trifluoromethyl)sulfanyl]indolizin-2-yl)-1,2,4-oxadiazol-5-yl]methyl}-4-methylmorpholine-3-carboxamide] | 10 to 100 | ≥ 3000 | ≥ 3000 | – |
| CN1CC[C@@H](Nc2cccn3c(SC(F)(F)F)c(-c4noc(CNC(=O)c5cnc(N)o5)n4)cc23)[C@@H](F)C1 [Example 77] | < 10 | < 750 | < 750 | – |
| CN1CC[C@@H](Nc2cccn3c(SC(F)(F)F)c(-c4noc(CNC(=O)c5ncn(C)n5)n4)cc23)[C@@H](F)C1 [Example 78] | < 10 | < 750 | < 750 | – |
| CN1CC[C@@H](Nc2cccn3c(SC(F)(F)F)c(-c4noc(CNC(=O)c5cnn(C)n5)n4)cc23)[C@@H](F)C1 [Example 79] | < 10 | < 750 | < 750 | – |
| CN1CC[C@@H](Nc2cccn3c(SC(F)(F)F)c(-c4noc(CNC(=O)c5cnn[nH]5)n4)cc23)[C@@H](F)C1 [Example 80] | < 10 | 1500 to 3000 | 1500 to 3000 | – |
| CNC(=O)c1coc(NCc2nc(-c3cc4c(N[C@@H]5CCN(C)C[C@@H]5F)cccn4c3SC(F)(F)F)no2)n1 [Example 81] | < 10 | < 750 | 750 to 1500 | – |
| CN1CC[C@@H](Nc2cccn3c(SC(F)(F)F)c(-c4noc(CNC(=O)c5nnc(N(C)C)s5)n4)cc23)[C@@H](F)C1 [Example 82] | < 10 | < 750 | < 750 | – |
| CN1CC[C@@H](Nc2cccn3c(SC(F)(F)F)c(-c4cnc(CNC(=O)C5CC5)o4)cc23)[C@@H](F)C1 [Example 84] | 10 to 100 | ≥ 3000 | ≥ 3000 | – |
| CN1CC[C@@H](Nc2cccn3c(SC(F)(F)F)c(-c4noc(CNC(=O)c5cnn(C)c5)n4)cc23)[C@@H](F)C1 [Example 85] | < 10 | < 750 | < 750 | – |
| CN1CC[C@@H](Nc2cccn3c(SC(F)(F)F)c(-c4cc(CNC(=O)c5cnn(C(C)(C)C)c5)no4)cc23)[C@@H](F)C1 [Example 89] | < 10 | < 750 | < 750 | – |
| CN1CC[C@@H](Nc2cccn3c(SC(F)(F)F)c(-c4noc(CNC(=O)c5nsc(N(C)C)n5)n4)cc23)[C@@H](F)C1 [Example 93] | < 10 | < 750 | < 750 | – |
| CN1CC[C@@H](Nc2cccn3c(SC(F)(F)F)c(-c4noc(CNC(=O)c5ccn(C6(C)CCOCC6)c5)n4)cc23)[C@@H](F)C1 [Example 94] | < 10 | < 750 | < 750 | – |
| Cc1noc(C(=O)NCc2nc(-c3cc4c(N[C@@H]5CCN(C)C[C@@H]5F)cccn4c3SC(F)(F)F)no2)n1 [Example 98] | < 10 | 750 to 1500 | 750 to 1500 | – |

Further lines, with some results ahead:

| Kd [1] [nM] | AC50 (p53 Y220C) [nM] | SMILES | IC50 (NUGC3 cells (p53 Y220C)) [nM] | IC50 [2] [nM] |
| --- | --- | --- | --- | --- |
| < 10 | < 750 | CN1CC[C@@H](Nc2cccn3c(SC(F)(F)F)c(-c4noc(CNC(=O)c5cnn(C(C)(C)C)c5)n4)cc23)[C@@H](F)C1 [Example 2, 1-tert-butyl-N-{[3-(8-{[(3S,4R)-3-fluoro-1-methylpiperidin-4-yl]amino}-3-[(trifluoromethyl)sulfanyl]indolizin-2-yl)-1,2,4-oxadiazol-5-yl]methyl}pyrazole-4-carboxamide] | < 750 | < 750 |
| < 10 | < 750 | CN1CC[C@@H](Nc2cccn3c(SC(F)(F)F)c(-c4noc(CNC(=O)C5CC5)n4)cc23)[C@@H](F)C1 [Example 3, N-{[3-(8-{[(3S,4R)-3-fluoro-1-methylpiperidin-4-yl]amino}-3-[(trifluoromethyl)sulfanyl]indolizin-2-yl)-1,2,4-oxadiazol-5-yl]methyl}cyclopropanecarboxamide] | < 750 | < 750 |
| < 10 | < 750 | CN1CC[C@@H](Nc2cccn3c(SC(F)(F)F)c(-c4noc(CNC(=O)c5cncs5)n4)cc23)[C@@H](F)C1 [Example 70] | < 750 | – |
| < 10 | < 750 | Cc1ncc(C(=O)NCc2nc(-c3cc4c(N[C@@H]5CCN(C)C[C@@H]5F)cccn4c3SC(F)(F)F)no2)o1 [Example 71] | < 750 | – |
| < 10 | < 750 | CN1CC[C@@H](Nc2cccn3c(SC(F)(F)F)c(-c4noc(CNC(=O)c5cnco5)n4)cc23)[C@@H](F)C1 [Example 72] | < 750 | – |
| < 10 | < 750 | CN1CC[C@@H](Nc2cccn3c(SC(F)(F)F)c(-c4noc(CNC(=O)c5cnc[nH]5)n4)cc23)[C@@H](F)C1 [Example 73] | 750 to 1500 | – |
| < 10 | 750 to 1500 | CN1CC[C@@H](Nc2cccn3c(SC(F)(F)F)c(-c4noc(CNC(=O)c5ncon5)n4)cc23)[C@@H](F)C1 [Example 74] | 1500 to 3000 | – |
| < 10 | 750 to 1500 | CN1CC[C@@H](Nc2cccn3c(SC(F)(F)F)c(-c4noc(CNC(=O)c5ncn[nH]5)n4)cc23)[C@@H](F)C1 [Example 75] | 750 to 1500 | – |
| < 10 | < 750 | CN1CC[C@@H](Nc2cccn3c(SC(F)(F)F)c(-c4noc(CNC(=O)c5ccno5)n4)cc23)[C@@H](F)C1 [Example 76] | 750 to 1500 | – |
